{"source": "ChEMBL document CHEMBL4011618", "about": "“Discovery of Potent, Selective Stem Cell Factor Receptor/Platelet Derived Growth Factor Receptor Alpha (c-KIT/PDGFRα) Dual Inhibitor for the Treatment of Imatinib-Resistant Gastrointestinal Stromal Tumors (GISTs)” (J Med Chem, 2017)", "key": {"GISTT1 [1]": {"system": "GISTT1", "assay": "Antiproliferative activity against human GISTT1 cells assessed as cell growth inhibition after 72 hrs by cell titer-glo assay", "type": "functional", "details": "GISTT1, 72 h"}, "GISTT1 [2]": {"system": "GISTT1", "assay": "Antitumor activity against human GISTT1 cells xenografted in nu/nu mouse assessed as tumor growth inhibition at 25 mg/kg, ip administered daily for 28 days relative to control", "type": "functional", "details": "672 h, read-out: TGI"}, "[3]": {"system": "Mast/stem cell growth factor receptor Kit (Homo sapiens), P10721 [V654A]", "sequence (P10721 whole entry V654A)": "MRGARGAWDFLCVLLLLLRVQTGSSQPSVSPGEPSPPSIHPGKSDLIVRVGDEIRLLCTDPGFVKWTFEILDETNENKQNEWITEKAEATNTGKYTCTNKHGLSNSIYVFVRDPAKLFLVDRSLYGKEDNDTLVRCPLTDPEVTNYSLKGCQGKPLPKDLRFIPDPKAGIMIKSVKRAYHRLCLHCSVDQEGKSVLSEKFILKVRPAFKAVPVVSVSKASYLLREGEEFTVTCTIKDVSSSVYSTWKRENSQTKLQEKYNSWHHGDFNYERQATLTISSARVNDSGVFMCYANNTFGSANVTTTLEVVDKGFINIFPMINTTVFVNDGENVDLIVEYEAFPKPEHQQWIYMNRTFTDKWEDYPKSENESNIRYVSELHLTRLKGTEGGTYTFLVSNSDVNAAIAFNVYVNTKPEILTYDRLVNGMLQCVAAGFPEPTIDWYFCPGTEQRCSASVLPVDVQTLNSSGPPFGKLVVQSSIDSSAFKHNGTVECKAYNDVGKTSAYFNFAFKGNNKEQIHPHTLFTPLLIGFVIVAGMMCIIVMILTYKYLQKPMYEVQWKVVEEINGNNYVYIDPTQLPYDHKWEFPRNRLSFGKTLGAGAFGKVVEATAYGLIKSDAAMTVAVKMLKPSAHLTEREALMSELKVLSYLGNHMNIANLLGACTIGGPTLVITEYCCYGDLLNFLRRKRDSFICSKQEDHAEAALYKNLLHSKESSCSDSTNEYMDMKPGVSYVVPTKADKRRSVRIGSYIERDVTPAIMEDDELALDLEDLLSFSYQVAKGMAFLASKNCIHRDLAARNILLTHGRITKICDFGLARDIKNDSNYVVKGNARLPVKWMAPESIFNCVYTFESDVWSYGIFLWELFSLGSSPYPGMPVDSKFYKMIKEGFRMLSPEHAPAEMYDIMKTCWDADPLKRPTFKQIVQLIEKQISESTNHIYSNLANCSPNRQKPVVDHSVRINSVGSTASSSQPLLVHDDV", "description": "Inhibition of TEL-fused cKIT V654A mutant (unknown origin) expressed in mouse BAF3 cells assessed as cell growth inhibition after 72 hrs by cell titer-glo assay"}, "[4]": {"target": "Vascular endothelial growth factor receptor 2 (Homo sapiens, UniProt P35968)", "sequence (P35968 whole entry)": "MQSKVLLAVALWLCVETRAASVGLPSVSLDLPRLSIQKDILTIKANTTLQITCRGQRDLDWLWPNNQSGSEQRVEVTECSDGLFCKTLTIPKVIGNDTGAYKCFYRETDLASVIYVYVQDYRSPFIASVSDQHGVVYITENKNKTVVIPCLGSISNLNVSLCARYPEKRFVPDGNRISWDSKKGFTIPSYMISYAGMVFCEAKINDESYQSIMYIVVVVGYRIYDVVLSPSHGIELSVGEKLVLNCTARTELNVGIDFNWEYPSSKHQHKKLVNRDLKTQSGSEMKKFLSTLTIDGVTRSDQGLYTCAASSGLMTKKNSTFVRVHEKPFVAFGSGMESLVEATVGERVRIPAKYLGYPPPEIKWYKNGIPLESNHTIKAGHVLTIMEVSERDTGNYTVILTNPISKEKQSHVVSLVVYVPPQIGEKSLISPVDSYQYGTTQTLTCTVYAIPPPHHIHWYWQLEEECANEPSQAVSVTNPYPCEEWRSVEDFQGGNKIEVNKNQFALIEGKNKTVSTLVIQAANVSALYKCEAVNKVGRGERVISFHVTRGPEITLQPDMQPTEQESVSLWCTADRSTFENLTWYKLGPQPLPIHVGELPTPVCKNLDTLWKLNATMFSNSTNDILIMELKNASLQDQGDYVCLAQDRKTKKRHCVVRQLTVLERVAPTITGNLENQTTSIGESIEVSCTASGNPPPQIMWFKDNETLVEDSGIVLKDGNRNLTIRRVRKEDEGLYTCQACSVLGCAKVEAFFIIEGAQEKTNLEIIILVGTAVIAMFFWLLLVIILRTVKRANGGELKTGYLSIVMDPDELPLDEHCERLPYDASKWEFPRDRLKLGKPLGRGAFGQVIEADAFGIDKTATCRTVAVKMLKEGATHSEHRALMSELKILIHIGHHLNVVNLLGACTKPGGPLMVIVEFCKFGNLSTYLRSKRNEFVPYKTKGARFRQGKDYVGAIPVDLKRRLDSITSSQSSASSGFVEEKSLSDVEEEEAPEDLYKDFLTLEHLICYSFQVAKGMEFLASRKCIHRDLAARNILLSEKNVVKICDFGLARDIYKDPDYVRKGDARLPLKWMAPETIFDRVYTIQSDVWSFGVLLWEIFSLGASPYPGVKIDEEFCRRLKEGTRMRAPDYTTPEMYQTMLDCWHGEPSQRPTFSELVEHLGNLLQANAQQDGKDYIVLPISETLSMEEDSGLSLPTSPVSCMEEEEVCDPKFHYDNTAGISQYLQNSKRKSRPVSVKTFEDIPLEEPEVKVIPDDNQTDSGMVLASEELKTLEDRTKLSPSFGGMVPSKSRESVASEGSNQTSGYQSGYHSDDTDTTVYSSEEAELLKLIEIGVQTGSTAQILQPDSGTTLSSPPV", "description": "Inhibition of VEGFR2 (unknown origin) using FAM-labeled peptide as substrate preincubated for 10 mins followed by substrate addition in presence of ATP by mobility shift assay"}, "BaF3 [5]": {"system": "BaF3", "assay": "Antitumor activity against mouse BAF3 cells harboring TEL-cKIT-T670I mutant allografted in nu/nu mouse assessed as tumor growth inhibition at 100 mg/kg, ip administered daily for 11 days relative to control", "type": "functional", "details": "264 h, read-out: TGI"}, "[6]": {"assay": "Tmax in Sprague-Dawley rat at 100 mg/kg, ip up to 24 hrs post dose by LC/MS/MS analysis", "type": "ADME, organism-based", "details": "in vivo"}, "[7]": {"assay": "Cmax in Sprague-Dawley rat at 25 mg/kg, ip up to 24 hrs post dose by LC/MS/MS analysis", "type": "ADME, organism-based", "parameters": "dose 25 mg/kg, route intraperitoneal", "details": "in vivo"}, "[8]": {"assay": "Cmax in Sprague-Dawley rat at 100 mg/kg, ip up to 24 hrs post dose by LC/MS/MS analysis", "type": "ADME, organism-based", "parameters": "dose 100 mg/kg, route intraperitoneal", "details": "in vivo"}, "[9]": {"system": "Mast/stem cell growth factor receptor Kit (Homo sapiens), P10721 [C674S]", "sequence (P10721 whole entry C674S)": "as the sequence (P10721 whole entry V654A) above, with A654V, C674S counted along it", "description": "Inhibition of TEL-fused cKIT C674S mutant (unknown origin) expressed in mouse BAF3 cells assessed as cell growth inhibition after 72 hrs by cell titer-glo assay"}, "[10]": {"target": "Receptor-type tyrosine-protein kinase FLT3 (Homo sapiens, UniProt P36888)", "sequence (P36888 whole entry, the tested form may be a part)": "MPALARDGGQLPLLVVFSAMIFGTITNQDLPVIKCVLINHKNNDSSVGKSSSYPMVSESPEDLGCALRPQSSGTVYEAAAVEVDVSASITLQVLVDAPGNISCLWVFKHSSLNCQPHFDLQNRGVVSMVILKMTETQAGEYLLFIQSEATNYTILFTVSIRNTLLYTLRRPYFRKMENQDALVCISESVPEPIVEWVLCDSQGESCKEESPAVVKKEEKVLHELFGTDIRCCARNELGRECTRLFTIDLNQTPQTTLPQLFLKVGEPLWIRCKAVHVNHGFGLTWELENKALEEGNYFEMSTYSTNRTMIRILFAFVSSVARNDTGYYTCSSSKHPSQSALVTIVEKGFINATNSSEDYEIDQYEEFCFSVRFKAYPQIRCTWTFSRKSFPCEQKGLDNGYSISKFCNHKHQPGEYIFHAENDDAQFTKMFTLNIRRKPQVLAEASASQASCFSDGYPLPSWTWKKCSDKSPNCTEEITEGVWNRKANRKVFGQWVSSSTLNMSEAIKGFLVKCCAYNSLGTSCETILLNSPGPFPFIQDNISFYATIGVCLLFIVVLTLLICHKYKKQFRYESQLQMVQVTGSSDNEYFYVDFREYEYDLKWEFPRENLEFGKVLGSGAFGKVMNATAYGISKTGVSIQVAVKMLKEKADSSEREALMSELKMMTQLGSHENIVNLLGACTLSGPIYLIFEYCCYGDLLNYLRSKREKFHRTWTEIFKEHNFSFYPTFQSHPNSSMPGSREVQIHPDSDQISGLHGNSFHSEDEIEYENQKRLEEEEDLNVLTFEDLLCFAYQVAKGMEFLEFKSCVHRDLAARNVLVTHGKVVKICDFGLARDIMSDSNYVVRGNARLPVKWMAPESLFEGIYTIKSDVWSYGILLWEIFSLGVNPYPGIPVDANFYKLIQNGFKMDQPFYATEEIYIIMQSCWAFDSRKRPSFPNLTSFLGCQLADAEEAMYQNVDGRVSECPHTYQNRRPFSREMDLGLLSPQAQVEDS", "assay": "Inhibition of human His-tagged FLT3 (564 to 958 residues) expressed in baculovirus by ELISA"}, "[11]": {"system": "Mast/stem cell growth factor receptor Kit (Homo sapiens), P10721 [V559D]", "sequence (P10721 whole entry V559D)": "as the sequence (P10721 whole entry V654A) above, with V559D, A654V counted along it"}, "[12]": {"assay": "Antiproliferative activity against CHO cells assessed as cell growth inhibition after 72 hrs by cell titer-glo assay", "type": "cell-based, Cricetulus griseus", "details": "chinese hamster"}, "[13]": {"target": "Vascular endothelial growth factor receptor 1 (Homo sapiens, UniProt P17948)", "assay": "Inhibition of human GST-tagged FLT1 (781 to 1338 residues) expressed in baculovirus by ELISA"}, "[14]": {"target": "Macrophage colony-stimulating factor 1 receptor (Homo sapiens, UniProt P07333)", "sequence (P07333 whole entry)": "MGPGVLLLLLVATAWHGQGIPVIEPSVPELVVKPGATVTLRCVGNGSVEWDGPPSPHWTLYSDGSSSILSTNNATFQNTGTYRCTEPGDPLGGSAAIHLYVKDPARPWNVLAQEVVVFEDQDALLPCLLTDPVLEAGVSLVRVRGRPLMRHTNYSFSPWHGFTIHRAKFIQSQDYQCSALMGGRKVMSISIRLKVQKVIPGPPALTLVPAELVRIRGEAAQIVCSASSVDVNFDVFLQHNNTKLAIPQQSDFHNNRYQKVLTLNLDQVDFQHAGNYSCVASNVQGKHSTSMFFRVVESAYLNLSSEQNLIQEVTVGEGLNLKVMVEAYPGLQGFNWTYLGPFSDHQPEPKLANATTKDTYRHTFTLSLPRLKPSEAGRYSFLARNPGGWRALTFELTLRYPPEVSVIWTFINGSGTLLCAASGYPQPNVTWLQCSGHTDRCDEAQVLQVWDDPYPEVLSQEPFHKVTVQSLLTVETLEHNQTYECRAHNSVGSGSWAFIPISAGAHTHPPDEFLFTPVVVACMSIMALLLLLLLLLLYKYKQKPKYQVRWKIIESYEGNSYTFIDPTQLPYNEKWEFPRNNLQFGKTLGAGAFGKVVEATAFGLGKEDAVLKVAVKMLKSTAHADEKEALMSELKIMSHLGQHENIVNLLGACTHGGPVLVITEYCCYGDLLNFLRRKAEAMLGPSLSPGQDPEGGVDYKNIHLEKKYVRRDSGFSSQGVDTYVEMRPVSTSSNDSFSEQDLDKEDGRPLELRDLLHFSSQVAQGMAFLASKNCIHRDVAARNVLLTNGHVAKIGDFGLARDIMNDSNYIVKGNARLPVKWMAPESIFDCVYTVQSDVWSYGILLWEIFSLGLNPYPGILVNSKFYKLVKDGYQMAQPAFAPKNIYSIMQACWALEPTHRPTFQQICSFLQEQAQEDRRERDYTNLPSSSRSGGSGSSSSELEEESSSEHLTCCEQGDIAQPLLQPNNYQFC", "assay": "Inhibition of human full length His-tagged CSF1R expressed in baculovirus by Z'Lyte assay"}, "[15]": {"assay": "MRT (0 to infinity) in Sprague-Dawley rat at 25 mg/kg, ip up to 24 hrs post dose by LC/MS/MS analysis", "type": "ADME, organism-based", "details": "in vivo"}, "[16]": {"assay": "AUC (0 to t) in Sprague-Dawley rat at 100 mg/kg, ip up to 24 hrs post dose by LC/MS/MS analysis", "type": "ADME, organism-based", "parameters": "dose 100 mg/kg, time < 24 hr, route intraperitoneal", "details": "in vivo"}, "Mus musculus": {"system": "Mus musculus", "assay": "Toxicity in nu/nu mouse xenografted with human GISTT1 cells assessed as body weight loss at 25 to 100 mg/kg, ip administered daily for 28 days measured during compound dosing", "type": "organism-based", "details": "in vivo, 672 h"}, "[17]": {"assay": "Antiproliferative activity against human GIST48B cells assessed as cell growth inhibition after 72 hrs by cell titer-glo assay", "type": "functional"}, "MEG-01": {"system": "MEG-01", "assay": "Antiproliferative activity against human MEG01 cells assessed as cell growth inhibition after 72 hrs by cell titer-glo assay", "type": "functional", "details": "MEG-01, 72 h"}, "[18]": {"assay": "AUC (0 to infinity) in Sprague-Dawley rat at 2 mg/kg, iv up to 24 hrs post dose by LC/MS/MS analysis", "type": "ADME, organism-based", "parameters": "dose 2 mg/kg, route intravenous, time infinity", "details": "in vivo"}, "BaF3 [19]": {"system": "BaF3", "assay": "Antitumor activity against mouse BAF3 cells harboring TEL-cKIT-T670I mutant allografted in nu/nu mouse assessed as tumor growth inhibition at 25 mg/kg, ip administered daily for 11 days relative to control", "type": "functional", "details": "264 h, read-out: TGI"}, "[20]": {"assay": "Half life in Sprague-Dawley rat at 100 mg/kg, ip up to 24 hrs post dose by LC/MS/MS analysis", "type": "ADME, organism-based", "details": "in vivo"}, "[21]": {"target": "Platelet-derived growth factor receptor alpha (Homo sapiens, UniProt P16234)", "description": "Inhibition of TEL-fused PDGFRalpha (unknown origin) expressed in mouse BAF3 cells assessed as cell growth inhibition after 72 hrs by cell titer-glo assay"}, "KU812 cell line": {"system": "KU812 cell line", "assay": "Antiproliferative activity against human KU812 cells assessed as cell growth inhibition after 72 hrs by cell titer-glo assay", "type": "functional", "details": "KU812, 72 h"}, "[22]": {"assay": "AUC (0 to t) in Sprague-Dawley rat at 25 mg/kg, ip up to 24 hrs post dose by LC/MS/MS analysis", "type": "ADME, organism-based", "parameters": "dose 25 mg/kg, time < 24 hr, route intraperitoneal", "details": "in vivo"}}}
{"smiles": "Cc1cc(NC(=O)Nc2ccc(-c3ccnc4[nH]nc(C)c34)cc2)ccc1N1CCOCC1", "values": [{"measurement": "GI50", "setting": "GISTT1 [1]", "value": "< 3", "unit": "nM"}, {"measurement": "inhibition in vivo at 25 mg/kg", "setting": "GISTT1 [2]", "value": 20.2, "unit": "%"}, {"measurement": "GI50", "setting": "[3]", "value": 136, "unit": "nM"}, {"measurement": "IC50", "setting": "[4]", "value": 2280, "unit": "nM"}, {"measurement": "inhibition in vivo at 100 mg/kg", "setting": "BaF3 [5]", "value": 41.9, "unit": "%"}, {"measurement": "Tmax", "setting": "[6]", "value": 4, "unit": "h"}, {"measurement": "Cmax", "setting": "[7]", "value": 117, "unit": "ng/mL"}, {"measurement": "Cmax", "setting": "[8]", "value": 656, "unit": "ng/mL"}, {"measurement": "GI50", "setting": "[9]", "value": 10.5, "unit": "nM"}, {"measurement": "IC50", "setting": "[10]", "value": 2, "unit": "nM"}, {"measurement": "GI50", "setting": "[11]", "value": 96.5, "unit": "nM"}, {"measurement": "GI50 at 72 h", "setting": "[12]", "value": "> 10000", "unit": "nM"}, {"measurement": "IC50", "setting": "[13]", "value": 159, "unit": "nM"}, {"measurement": "IC50", "setting": "[14]", "value": 160, "unit": "nM"}, {"measurement": "MRT inf", "setting": "[15]", "value": 6.48, "unit": "h"}, {"measurement": "AUC(0-t) at 24 h", "setting": "[16]", "value": 4250, "unit": "ng·h/mL"}, {"measurement": "Activity", "setting": "Mus musculus", "value": "Non-Toxic"}, {"measurement": "GI50", "setting": "[17]", "value": "> 10000", "unit": "nM"}, {"measurement": "GI50", "setting": "MEG-01", "value": 9090, "unit": "nM"}, {"measurement": "AUC(0-inf)", "setting": "[18]", "value": 2250, "unit": "ng·h/mL"}, {"measurement": "inhibition in vivo at 25 mg/kg", "setting": "BaF3 [19]", "value": 16.8, "unit": "%"}, {"measurement": "half-life", "setting": "[20]", "value": 11, "unit": "h"}, {"measurement": "GI50", "setting": "[21]", "value": 10.4, "unit": "nM"}, {"measurement": "GI50", "setting": "KU812 cell line", "value": "> 10000", "unit": "nM"}, {"measurement": "AUC(0-t) at 24 h", "setting": "[22]", "value": 691, "unit": "ng·h/mL"}]}
